Key:
LFA-1 (CD11a) = target: T1, LFA-1 (CD11a) (Homo sapiens, UniProt P20701); test: Antibody binding assay (FACS): anti-LFA-1 mAb (mouse IgG anti-human CD11a) binding to Molt3 T-cells after peptide incubation; type: cell-based; conditions: for Fluorescence, % change from control of the medium fluorescence intensity: mAb CD11a, average ± standard error of runs
T1 construct: host or cells: Molt3 human T-cell leukemia line
Experimental: A 1 ml quantity of the Molt3 inoculum was warmed to 37° C. and transferred by pipette into about 25 ml of a growth culture medium including RPMI 1640 lymphocyte growth medium (Fisher Scientific of St. Louis, Miss.) mixed with 10% by volume fetal calf serum, 100 units/ml penicillin, 100 μg/ml streptomycin and 2 mM glutamine. The inoculated culture was incubated for three to four days at 37° C. under a normal atmosphere having about 5% CO2 added thereto. This culture was capable of being maintained indefinitely by siphoning away the top (non-cell containing) layer and adding 50 ml (or more) of growth culture medium at intervals of three to four days.
An aqueous buffer solution including Dulbecco's phosphate buffered saline and bovine serum albumin ("-PBS/BSA solution") was prepared for use, and included a mixture of 200 mg KH2 PO4, 1.15 g Na2 HPO4, 100 mg CaCl2, 200 mg KCl, 100 mg MgCl2.6H2 O, 8 g NaCl, with distilled water added to a final 1 liter volume at room temperature, thus, forming a "PBS" solution of pH 7.4 to which was added 0.5% by weight bovine serum albumin.
An aliquot of about 7 ml was removed from the incubated culture medium and subjected to washing with the PBS/BSA solution. The washing procedure was initiated by placing the aliquot in a centrifuge (Model GT422 from Jouan, distributed Piruscio & Assoc. of Manchester, Miss.) at 1400 rpm for 6.5 minutes to separate the cells from the growth medium. The supernatant fluid was decanted, a 5 ml portion of PBS/BSA solution was transferred by pipette into the pellet, and the mixture was again centrifuged as before. The resulting supernatant fluid was decanted and the cells from the pellet were resuspended in PBS/BSA solution at a titer of about 1×10^6 cells/ml. A 500 μl portion of the solution containing the resuspended cells was placed in a microcentrifuge (Marathon 13K/M from Fisher Scientific of St. Louis, Miss.) at 3500 rpm for six minutes, to provide a washed pellet.
[…] The cells were incubated with the peptide cocktail at 37° C. for 45 minutes.
After incubation with the peptide cocktail, several antibodies were successively mixed into the incubated solution. A 75 μl portion of anti-IgM solution (a mixture of 10 μl of goat anti-human IgM stock purchased from Jackson Immuno Research of Westgrove, Pa.; and 65 μl of PBS/BSA solution) was added to the peptide cocktail for blocking of nonspecific binding of the secondary antibody. The resulting mixture was incubated for 10 minutes on ice. About 0.1 μg of a primary antibody including mouse IgG anti-human CD11a (purified according to conventional protocols at the University of Kansas Department of Pharmacology and Toxicology from an American Type Culture hybridoma cell line having Catalogue Number HB-202) was next stirred into the mixture, which was then incubated for 30 minutes at room temperature. The incubated mixture was placed in a microcentrifuge at 3500 rpm for six minutes to remove the cells from the mixture, and the cell pellet was washed two times by adding 500 μl aliquots of PBS/BSA solution and microfuging to remove non-bound antibodies from the cells as before. The resulting washed pellet was resuspended in 100 μl of a secondary antibody cocktail including 5 μl of fluorescein isothiocyanate ("FITC") labeled goat anti-mouse IgG (from CALTAG of South San Francisco, Calif.) and 95 μl of PBS/BSA solution. The resulting solution was incubated for 30 minutes at room temperature in the dark.
The incubated solution including the secondary antibody cocktail was microfuged at 3500 rpm for six minutes to remove the cells from the solution, and the cell pellet was washed two times with 500 μl portions of PBS/BSA solution, as before, to remove unbound antibodies. […]

Molt3 cells = test: Homotypic adhesion assay (MDHC-induced clumping of T-cells); type: cell-based, human; set-up: key to Homotypic Adhesion Amount: Any sample having a score of "+++" or "++++" is considered to have a significant ability to modulate T-cell binding interaction; Any sample having a score of "+++" or "++++" is considered to have a significant ability to modulate T-cell binding interaction; conditions: 10 μM MDHC

T1 sequence (P20701 26-1170): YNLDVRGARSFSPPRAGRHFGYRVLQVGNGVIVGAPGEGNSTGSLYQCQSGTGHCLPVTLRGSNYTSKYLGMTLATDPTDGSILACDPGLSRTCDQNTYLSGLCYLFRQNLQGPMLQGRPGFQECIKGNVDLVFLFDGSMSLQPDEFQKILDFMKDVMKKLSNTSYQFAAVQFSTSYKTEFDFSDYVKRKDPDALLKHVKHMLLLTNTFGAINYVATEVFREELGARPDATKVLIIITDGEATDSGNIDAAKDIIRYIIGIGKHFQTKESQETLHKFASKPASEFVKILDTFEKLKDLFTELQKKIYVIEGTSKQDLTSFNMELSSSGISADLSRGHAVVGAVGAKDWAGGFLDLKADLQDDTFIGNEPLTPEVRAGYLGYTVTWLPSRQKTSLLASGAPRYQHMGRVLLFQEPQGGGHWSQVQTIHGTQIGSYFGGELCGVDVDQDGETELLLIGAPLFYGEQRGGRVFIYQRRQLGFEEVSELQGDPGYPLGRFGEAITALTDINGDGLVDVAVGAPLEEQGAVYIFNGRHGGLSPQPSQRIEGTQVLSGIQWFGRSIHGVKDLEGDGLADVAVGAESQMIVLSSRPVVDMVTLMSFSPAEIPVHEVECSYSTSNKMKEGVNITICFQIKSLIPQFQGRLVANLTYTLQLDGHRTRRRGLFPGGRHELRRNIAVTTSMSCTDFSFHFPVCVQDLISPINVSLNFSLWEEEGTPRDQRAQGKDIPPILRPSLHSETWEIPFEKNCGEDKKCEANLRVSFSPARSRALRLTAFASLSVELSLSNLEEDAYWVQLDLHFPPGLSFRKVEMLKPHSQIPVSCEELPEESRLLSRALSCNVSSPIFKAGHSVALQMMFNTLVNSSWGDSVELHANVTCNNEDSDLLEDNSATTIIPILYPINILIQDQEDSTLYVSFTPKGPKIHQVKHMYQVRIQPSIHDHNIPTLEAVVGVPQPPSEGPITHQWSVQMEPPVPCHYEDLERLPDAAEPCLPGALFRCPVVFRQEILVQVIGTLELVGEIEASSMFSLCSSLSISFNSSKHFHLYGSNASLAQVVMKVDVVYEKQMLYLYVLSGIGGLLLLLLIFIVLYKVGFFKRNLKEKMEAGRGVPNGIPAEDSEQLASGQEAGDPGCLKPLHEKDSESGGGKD
T1 sequence (P05107 23-769 partner): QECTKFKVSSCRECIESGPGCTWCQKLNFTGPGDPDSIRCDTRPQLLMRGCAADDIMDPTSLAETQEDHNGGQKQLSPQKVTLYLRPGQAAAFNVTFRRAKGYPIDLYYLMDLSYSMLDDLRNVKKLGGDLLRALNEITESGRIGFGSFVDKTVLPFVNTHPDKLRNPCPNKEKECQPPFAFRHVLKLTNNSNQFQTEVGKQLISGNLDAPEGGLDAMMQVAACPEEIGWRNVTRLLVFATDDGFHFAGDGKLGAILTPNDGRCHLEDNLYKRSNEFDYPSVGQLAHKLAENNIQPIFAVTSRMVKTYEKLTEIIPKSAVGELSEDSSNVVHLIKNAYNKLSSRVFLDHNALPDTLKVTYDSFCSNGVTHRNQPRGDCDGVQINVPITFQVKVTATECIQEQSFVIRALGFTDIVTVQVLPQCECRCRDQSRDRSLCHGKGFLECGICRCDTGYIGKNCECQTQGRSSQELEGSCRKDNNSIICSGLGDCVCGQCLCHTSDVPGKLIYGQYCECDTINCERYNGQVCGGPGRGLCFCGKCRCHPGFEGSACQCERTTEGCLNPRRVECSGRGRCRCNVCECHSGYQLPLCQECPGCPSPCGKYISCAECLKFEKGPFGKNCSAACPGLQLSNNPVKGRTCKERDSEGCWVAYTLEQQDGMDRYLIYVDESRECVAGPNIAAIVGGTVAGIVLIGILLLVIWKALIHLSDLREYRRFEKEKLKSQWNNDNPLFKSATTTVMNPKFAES

## SC-3-111: ICAM-1 based short-chain peptide, Sequence ID No. 10 (QTSVSPSKVI)
LFA-1 (CD11a); peptide 2275 μM
  Fluorescence, % change from control of the medium fluorescence intensity: -12 ± 4%
LFA-1 (CD11a); peptide 4550 μM, negative = blocking
  Fluorescence, % change from control of the medium fluorescence intensity: -29 ± 2%
LFA-1 (CD11a); single above-average run (FIGS. 2, 3), peptide 4550 μM, anti-CD11a
  blocking efficiency: 51%
LFA-1 (CD11a); single run of FIG. 2 (control 264.41), anti-CD11a
  sample median peak fluorescence intensity value: 128.74
LFA-1 (CD11a); single run of FIG. 2, peptide 4550 μM, anti-CD11a
  % change of median peak vs control: -51%
Molt3 cells; peptide 230 μM
  Homotypic Adhesion Effect: Block
Molt3 cells; peptide 460 μM
  Homotypic Adhesion Effect: Block
Molt3 cells; peptide 910 μM
  Homotypic Adhesion Amount: ++++
  Homotypic Adhesion Effect: Block
Molt3 cells; peptide 1820 μM
  Homotypic Adhesion Amount: +++
  Homotypic Adhesion Effect: Block
